The record followed here is patent US12233161B1, “Lipids and lipid nanoparticle formulations” (LONGUIDE BIOPHARMA CORPORATION, priority 2024, dated 2025).

The test has as its system mice. Description: In vivo delivery of FLuc-mRNA lipid nanoparticles in mice, in vivo imaging (IVIS). As to conditions: for IVIS / % of organ targeting: Fluc-mRNA LNP. The method, then: After the preparation was completed, the preparation was injected intramuscularly (mice rectus femoris muscle of the thigh), intravenously (mice tail vein), or intraperitoneal injection or subcutaneous injection (subcutaneous on the back), with approximately 75 μL per mouse, for a total of 3 mice. After a certain time of injection, in vivo imaging (PerkinElmer, IVIS Lumina III) was performed. 10-15 minutes before imaging, 200 μL of 15 mg/mL D-Luciferin working solution was injected intraperitoneally, and the imaging analysis was performed using an in vivo imager.

The mark [1] stands for this setting: route IM, organ not given, formulation, molar ratio and N/P as in the table.
The mark [2] stands for this setting: route IV, organ: body, formulation, molar ratio and N/P as in the table.
Where [3] appears, read: route IV, organ: liver, formulation, molar ratio and N/P as in the table.
Setting [4] is: route IV, organ: lung, formulation, molar ratio and N/P as in the table.
The mark [5] stands for this setting: route IV, organ: spleen, formulation, molar ratio and N/P as in the table.
Setting [6] is: route IM, organ: liver, formulation, molar ratio and N/P as in the table.
Where [7] appears, read: route IM, organ: lung, formulation, molar ratio and N/P as in the table.
Setting [8] is: route IM, organ: spleen, formulation, molar ratio and N/P as in the table.

With `CCCCCCCCCCCCNC(=O)C(O)CN(CCCN(C)CCN(C)CCCN(CC(O)C(=O)NCCCCCCCCCCCC)CC(O)C(=O)NCCCCCCCCCCCC)CC(O)C(=O)NCCCCCCCCCCCC` (stereo not shown) [Compound L0365], under setting [1], the IVIS was found to be 1.24E+06.
`CCCCCCC(CCCCCC)C(=O)OCCCCCCNC(=O)C(O)CN(CCCN(C)CCCN(CC(O)C(=O)NCCCCCCOC(=O)C(CCCCCC)CCCCCC)CC(O)C(=O)NCCCCCCOC(=O)C(CCCCCC)CCCCCC)CC(O)C(=O)NCCCCCCOC(=O)C(CCCCCC)CCCCCC` (stereo not shown) [Compound L0358]: the IVIS under setting [1] was determined as 1.45E+07.
Turning to `CCCCCCC(CCCCCC)C(=O)OCCCCNC(=O)C(O)CN(CCCN(CC(O)C(=O)NCCCCOC(=O)C(CCCCCC)CCCCCC)CC(O)C(=O)NCCCCOC(=O)C(CCCCCC)CCCCCC)CCCN(CC(O)C(=O)NCCCCOC(=O)C(CCCCCC)CCCCCC)CC(O)C(=O)NCCCCOC(=O)C(CCCCCC)CCCCCC` (stereo not shown) [Compound L0369], the IVIS by setting is: under setting [1], 6.07E+07; under setting [2], 1.22E+10; under setting [3], 4.47E+09; under setting [4], 3.40E+07; under setting [5], 3.07E+07. For the same compound, the “% of organ targeting” value by setting is: under setting [3], 98.57%; under setting [4], 0.75%; under setting [5], 0.68%.
Take `CCCCCCCCCCOC(=O)CCCNC(=O)C(O)CN(CCCN(C)CCCN(CC(O)C(=O)NCCCC(=O)OCCCCCCCCCC)CC(O)C(=O)NCCCC(=O)OCCCCCCCCCC)CC(O)C(=O)NCCCC(=O)OCCCCCCCCCC` (stereo not shown) [Compound L0385]: the IVIS reads like this: under setting [1], 1.14E+06; under setting [2], 8.17E+07; under setting [3], 2.51E+06; under setting [4], 2.74E+08; under setting [5], 1.94E+06. The “% of organ targeting” value is, setting by setting: under setting [3], 0.90%; under setting [4], 98.40%; under setting [5], 0.70%. The “organ targeting specificity (spleen or lung), in words” value (Table 3, Fluc-mRNA, various formulations) was “more selective towards the lung”.
Consider `CCCCCCCCC(CCCCCC)C(=O)NCCOC(=O)C(O)CN(CCCN(CC(O)C(=O)OCCNC(=O)C(CCCCCC)CCCCCCCC)CC(O)C(=O)OCCNC(=O)C(CCCCCC)CCCCCCCC)CCCN(CC(O)C(=O)OCCNC(=O)C(CCCCCC)CCCCCCCC)CC(O)C(=O)OCCNC(=O)C(CCCCCC)CCCCCCCC` (stereo not shown) [Compound L0375], for which the IVIS came to 1.41E+05 under setting [1]; 3.72E+05 (route IV, organ not given, formulation, molar ratio and N/P as in the table).
For the compound `CCCCCCC(CCCCCC)C(=O)NCCNC(=O)C(O)CN(CCCN(CC(O)C(=O)NCCNC(=O)C(CCCCCC)CCCCCC)CC(O)C(=O)NCCNC(=O)C(CCCCCC)CCCCCC)CCCN(CC(O)C(=O)NCCNC(=O)C(CCCCCC)CCCCCC)CC(O)C(=O)NCCNC(=O)C(CCCCCC)CCCCCC` (stereo not shown) [Compound L0381], the IVIS under setting [1] was 1.90E+07; the IVIS under setting [2] came out at 1.57E+08; the IVIS under setting [3] amounted to 8.07E+07; the IVIS under setting [4] was 4.31E+05; the IVIS under setting [5] is 1.22E+07. In addition, the “% of organ targeting” value reads like this: under setting [3], 86.51%; under setting [4], 0.46%; under setting [5], 13.03%.
Consider `CCCCCCCCCCCCCCN(C)C(=O)C(O)CN(CCCN(C)CCCN(CC(O)C(=O)N(C)CCCCCCCCCCCCCC)CC(O)C(=O)N(C)CCCCCCCCCCCCCC)CC(O)C(=O)N(C)CCCCCCCCCCCCCC` (stereo not shown) [Compound L0355], for which the IVIS runs as follows: under setting [1], 2.41E+06; under setting [2], 9.52E+06; under setting [3], 2.63E+05; under setting [4], 1.34E+07; under setting [5], 2.13E+06. Also, the “% of organ targeting” value is, setting by setting: under setting [3], 1.66%; under setting [4], 84.86%; under setting [5], 13.48%.
Take `CCCCCCCCCCCCNC(=O)C(CN(CCCN(C)CCCN(CC(OC(C)=O)C(=O)NCCCCCCCCCCCC)CC(OC(C)=O)C(=O)NCCCCCCCCCCCC)CC(OC(C)=O)C(=O)NCCCCCCCCCCCC)OC(C)=O` (stereo not shown) [Compound L0388]: the IVIS runs as follows: under setting [1], 1.49E+07; under setting [2], 1.49E+08; under setting [3], 2.37E+07; under setting [4], 1.74E+06; under setting [5], 8.08E+07. Also, the “% of organ targeting” value is, setting by setting: under setting [3], 22.33%; under setting [4], 1.64%; under setting [5], 76.03%.
For `CCCCCCC(CCCCC)C(=O)OCCCCNC(=O)C(O)CN(CCCN(C)CCCCN(CCC(O)C(=O)NCCOC(=O)C(CCCCCC)CCCCCC)C(O)C(=O)NCCCCOC(=O)C(CCCCCC)CCCCCC)CC(O)C(=O)NCCCCOC(=O)C(CCCCC)CCCCCC` (stereo not shown) [Compound L0367], the IVIS reads like this: (route IH, organ: body, DSPE-PEG5000:DSPC:Chol:compound 1.40:11.15:38.95:48.50, N/P 30) 1.65E+07; (route IH, organ: spleen, DSPE-PEG5000:DSPC:Chol:compound 1.40:11.15:38.95:48.50, N/P 30) 8.20E+03; under setting [1], 3.40E+07; under setting [2], 4.05E+07; under setting [3], 3.83E+06; under setting [4], 4.47E+07. Under setting [5], the IVIS is recorded as 3.69E+07. Besides, the “% of organ targeting” value came out at 3.91% under setting [3], 45.55% under setting [4] and 37.59% under setting [5].
`CCCCCCCC(CCCCCCC)OC(=O)CCCNC(=O)C(O)CN(CCCN(C)CCCN(CC(O)C(=O)NCCCC(=O)OC(CCCCCCC)CCCCCCC)CC(O)C(=O)NCCCC(=O)OC(CCCCCCC)CCCCCCC)CC(O)C(=O)NCCCC(=O)OC(CCCCCCC)CCCCCCC` (stereo not shown) [Compound L0382]: the “% of organ targeting” value by setting is: under setting [6], 35.27%; under setting [7], 7.39%; under setting [8], 57.34%; under setting [3], 67.69%; under setting [4], 9.82%; under setting [5], 22.49%. In addition, the IVIS worked out at 5.75E+04 under setting [6]; 1.20E+04 under setting [7]; 4.83E+07 (route IM, organ: muscle, formulation, molar ratio and N/P as in the table); 9.34E+04 under setting [8]; 1.60E+09 under setting [2]; 3.25E+08 under setting [3]. For the same compound, the IVIS was determined as 4.72E+07 under setting [4] and 1.08E+08 under setting [5].
As for `CCCCCCCCCCCCCCN(C)C(=O)C(O)CN(CCCN(CC(O)C(=O)N(C)CCCCCCCCCCCCCC)CC(O)C(=O)N(C)CCCCCCCCCCCCCC)CCCN(CC(O)C(=O)N(C)CCCCCCCCCCCCCC)CC(O)C(=O)N(C)CCCCCCCCCCCCCC` (stereo not shown) [Compound L0357], the IVIS worked out at 3.97E+06 under setting [1]; 2.87E+07 under setting [2]; 6.55E+06 under setting [3]; 2.06E+05 under setting [4]; 5.03E+06 under setting [5]. Besides, the “% of organ targeting” value was 55.56% under setting [3], 1.75% under setting [4] and 42.69% under setting [5].
Take `CCCCCCCCC(CCCCCC)C(=O)OCCCCCCNC(=O)C(O)CN(CCN(C)CCN(CC(O)C(=O)NCCCCCCOC(=O)C(CCCCCC)CCCCCCCC)CC(O)C(=O)NCCCCCCOC(=O)C(CCCCCC)CCCCCCCC)CC(O)C(=O)NCCCCCCOC(=O)C(CCCCCC)CCCCCCCC` (stereo not shown) [Compound L0371]: the IVIS is listed as 3.02E+07 under setting [1]; 1.98E+07 under setting [2]; 2.58E+06 under setting [3]; 2.62E+06 under setting [4]; 2.64E+07 under setting [5]. In addition, the “% of organ targeting” value under setting [3] was 8.16%, the “% of organ targeting” value under setting [4] is reported as 8.29% and the “% of organ targeting” value under setting [5] is recorded as 83.54%.
